For one assay, the target named is c-Kit(V654A) (Homo sapiens, UniProt P10721, V654A). The experiment in a line: c-Kit(V654A) assay. Type of assay: biochemical. Conditions: Table 1; 200 μM ATP. Summed up: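 Radiometric filter-binding read-out: after 3% phosphoric acid stop, peptide-incorporated 33P on filtermat scintillation-counted. Enzyme: human c-Kit V654A, residues 544–end, N-terminal GST fusion.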

In assay [1] the target is mutant cKIT (560-576 and V654A) in GIST430/654 cell line (Homo sapiens (Human), UniProt P10721, DEL560-576/V654A). The experiment in a line: Cellular testing of cKIT mutant inhibitors: phospho-Y307-cKIT Luminex assay in GIST430/654 cells. It counts as cell-based. Conditions: Table 1; cKIT autophosphorylation, compounds 45 min; read-out: GIST 430/654 IC50. The essentials:
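GIST430/654 cells carrying constitutively active cKIT (Δ560-576/V654A) were grown with 100 nM imatinib, then treated with serially diluted compound for 45 min. Lysates were captured on anti-total-cKIT Luminex beads overnight at 4 °C and probed for phospho-Y307-cKIT. IC50 was fitted from percent of 0.3% DMSO control.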

IC50 data for 20 compounds are collected here from patent publication US20260042753A1 (Merck Patent GmbH, priority 2019, published 2026).

SMILES strings stand for the structures.

mutant cKIT (560-576 and V654A) in GIST430/654 cell line, sequence (P10721 other isoform, or with tags, fused parts or gaps V654A/del 1-25/del 560-576 limits assumed): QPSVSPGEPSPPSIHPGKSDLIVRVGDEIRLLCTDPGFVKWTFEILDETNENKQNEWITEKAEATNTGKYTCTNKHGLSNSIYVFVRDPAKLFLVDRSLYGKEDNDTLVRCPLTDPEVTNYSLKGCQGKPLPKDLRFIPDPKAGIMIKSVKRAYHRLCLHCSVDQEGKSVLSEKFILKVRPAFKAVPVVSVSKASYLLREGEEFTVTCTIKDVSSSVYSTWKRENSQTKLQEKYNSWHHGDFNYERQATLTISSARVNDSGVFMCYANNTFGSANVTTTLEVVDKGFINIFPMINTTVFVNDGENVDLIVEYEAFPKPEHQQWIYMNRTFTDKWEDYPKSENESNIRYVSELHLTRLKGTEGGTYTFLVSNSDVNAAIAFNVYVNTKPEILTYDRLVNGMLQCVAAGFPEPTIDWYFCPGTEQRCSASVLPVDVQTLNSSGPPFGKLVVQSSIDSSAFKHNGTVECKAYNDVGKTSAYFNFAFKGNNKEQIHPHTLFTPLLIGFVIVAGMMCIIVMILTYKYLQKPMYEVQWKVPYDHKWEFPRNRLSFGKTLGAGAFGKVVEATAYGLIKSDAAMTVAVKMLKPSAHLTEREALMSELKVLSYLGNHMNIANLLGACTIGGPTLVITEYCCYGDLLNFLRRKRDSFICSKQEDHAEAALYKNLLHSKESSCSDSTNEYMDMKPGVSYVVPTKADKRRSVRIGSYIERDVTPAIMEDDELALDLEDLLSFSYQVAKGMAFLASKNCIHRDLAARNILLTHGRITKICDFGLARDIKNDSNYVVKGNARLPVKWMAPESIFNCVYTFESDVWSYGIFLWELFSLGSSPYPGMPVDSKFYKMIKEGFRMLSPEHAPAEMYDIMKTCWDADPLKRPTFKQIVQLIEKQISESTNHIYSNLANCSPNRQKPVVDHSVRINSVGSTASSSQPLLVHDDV

With `COCCOc1cc2[nH]nc(-c3cc(-c4ccc(C(=O)N(C)CCS(C)(=O)=O)cc4)no3)c2cc1F` [A150, 4-{5-[5-fluoro-6-(2-methoxyethoxy)-1H-indazol-3-yl]-1,2-oxazol-3-yl}-N-(2-methanesulfonylethyl)-N-methylbenzamide], the IC50 came to 1.7 nM against c-Kit(V654A) and 110 nM in assay [1].
As to `COCCOc1cc2[nH]nc(-c3cc(-c4ccc(C(=O)N5CC6(C5)CS(=O)(=O)C6)cc4)no3)c2cc1F` [A151, 6-(4-{5-[5-fluoro-6-(2-methoxyethoxy)-1H-indazol-3-yl]-1,2-oxazol-3-yl}benzoyl)-2lambda6-thia-6-azaspiro[3.3]heptane-2,2-dione], the IC50 against c-Kit(V654A) was 0.71 nM; in assay [1] it was 240 nM.
`COCCOc1cc2[nH]nc(-c3cc(-c4ccc(C(=O)N5CC[C@H]5CS(C)(=O)=O)cc4)no3)c2cc1F` [A152, 5-fluoro-3-(3-{4-[(2S)-2-(methanesulfonylmethyl)azetidine-1-carbonyl]phenyl}-1,2-oxazol-5-yl)-6-(2-methoxyethoxy)-1H-indazole]: the IC50 came to 0.88 nM at c-Kit(V654A) and 64 nM in assay [1].
The matching figures for `COCCOc1cc2[nH]nc(-c3cc(-c4ccc(C(=O)N5CCC(N6CCOCC6)C5)cc4)no3)c2cc1F` (stereo not shown) [A153, 5-fluoro-6-(2-methoxyethoxy)-3-(3-{f4-[3-(morpholin-4-yl)pyrrolidine-1l-carbonyl]phenyl}-1,2-oxazol-5-yl)-1H-indazole]: 0.83 nM and 46 nM.
Taken in the same sequence, the figures for `COCCOc1cc2[nH]nc(-c3cc(-c4ccc(C(=O)N5CC[C@@H]5CS(C)(=O)=O)cc4)no3)c2cc1F` [A154, 5-fluoro-3-(3-{4-[(2R)-2-(methanesulfonylmethyl)azetidine-1-carbonyl]phenyl}-1,2-oxazol-5-yl)-6-(2-methoxyethoxy)-1H-indazole] were 0.89 nM and 110 nM.
`COCCOc1cc2[nH]nc(-c3cc(-c4ccc(C(=O)N5CCOCC56COC6)cc4)no3)c2cc1F` [A155, 5-(4-{5-[5-fluoro-6-(2-methoxyethoxy)-1H-indazol-3-yl]-1,2-oxazol-3-yl}benzoyl)-2,8-dioxa-5-azaspiro[3.5]nonane]: the figures for the IC50 (against c-Kit(V654A); in assay [1]) were 1.6 nM and 60 nM, respectively.
The matching figures for `COCCOc1cc2[nH]nc(-c3cc(-c4ccc(C(=O)NCc5nc6ccccc6[nH]5)cc4)no3)c2cc1F` [A156, N-[(1H-1,3-benzodiazol-2-yl)methyl]-4-{5-[5-fluoro-6-(2-methoxyethoxy)-1H-indazol-3-yl]-1,2-oxazol-3-yl}benzamide]: 5.2 nM and 350 nM.
The matching figures for `COCCOc1cc2[nH]nc(-c3cc(-c4ccc(C(=O)N5CCC6(CCOC6)C5)cc4)no3)c2cc1F` (stereo not shown) [A157, 7-(4-{5-[5-fluoro-6-(2-methoxyethoxy)-1H-indazol-3-yl]-1,2-oxazol-3-yl}benzoyl)-2-oxa-7-azaspiro[4.4]nonane]: 0.44 nM and 23 nM.
Take `COCCOc1cc2[nH]nc(-c3cc(-c4ccc(C(=O)N5CCC6(COC6)C5)cc4)no3)c2cc1F` [A158, 5-fluoro-6-(2-methoxyethoxy)-3-[3-(4-{2-oxa-6-azaspiro[3.4]octane-6-carbonyl}phenyl)-1,2-oxazol-5-yl]-1H-indazole]: the results for the IC50 (against c-Kit(V654A); in assay [1]) were 0.46 nM and 32 nM, respectively.
The matching figures for `COCCOc1cc2[nH]nc(-c3cc(-c4ccc(C(=O)N5CCC6(CCOCC6)C5)cc4)no3)c2cc1F` [A159, 2-(4-{5-[5-fluoro-6-(2-methoxyethoxy)-1H-indazol-3-yl]-1,2-oxazol-3-yl}benzoyl)-8-oxa-2-azaspiro[4.5]decane]: 0.29 nM and 21 nM.
With `COCCOc1cc2[nH]nc(-c3cc(-c4ccc(C(=O)N5CCC6(CN(C)C6)C5)cc4)no3)c2cc1F` [A160, 5-fluoro-6-(2-methoxyethoxy)-3-[3-(4-{2-methyl-2,6-diazaspiro[3.4]octane-6-carbonyl}phenyl)-1,2-oxazol-5-yl]-1H-indazole], the IC50 was 2.5 nM at c-Kit(V654A) and 170 nM in assay [1].
`COCCOc1cc2[nH]nc(-c3cc(-c4ccc(C(=O)N5CC6CC(C5)O6)cc4)no3)c2cc1F` [A161, 5-fluoro-6-(2-methoxyethoxy)-3-[3-(4-{6-oxa-3-azabicyclo[3.1.1]heptane-3-carbonyl}phenyl)-1,2-oxazol-5-yl]-1H-indazole]: the IC50 at c-Kit(V654A) was found to be 0.45 nM; in assay [1] it was 40 nM.
Regarding `COCCOc1cc2[nH]nc(-c3cc(-c4ccc(C(=O)N5C[C@@H]6C[C@H]5CO6)cc4)no3)c2cc1F` [A162, 5-fluoro-6-(2-methoxyethoxy)-3-(3-{4-[(1S,4S)-2-oxa-5-azabicyclo[2.2.1]heptane-5-carbonyl]phenyl}-1,2-oxazol-5-yl)-1H-indazole], the IC50 came out at 0.65 nM on c-Kit(V654A) and 44 nM in assay [1].
The matching figures for `COCCOc1cc2[nH]nc(-c3cc(-c4ccc(C(=O)N5C[C@H]6C[C@@H]5CO6)cc4)no3)c2cc1F` [A163, 5-fluoro-6-(2-methoxyethoxy)-3-(3-{4-[(1R,4R)-2-oxa-5-azabicyclo[2.2.1]heptane-5-carbonyl]phenyl}-1,2-oxazol-5-yl)-1H-indazole]: 0.54 nM and 38 nM.
Taken in the same sequence, the figures for `COCCOc1cc2[nH]nc(-c3cc(-c4ccc(C(=O)NCC(C)(C)N5CCOCC5)cc4)no3)c2cc1F` [A164, 4-{5-[5-fluoro-6-(2-methoxyethoxy)-1H-indazol-3-yl]-1,2-oxazol-3-yl}-N-[2-methyl-2-(morpholin-4-yl)propyl]benzamide] were 1.5 nM and 130 nM.
The matching figures for `COCCOc1cc2[nH]nc(-c3cc(-c4ccc(C(=O)N5CC6(CCOCC6)C5)cc4)no3)c2cc1F` [A165, 2-(4-{5-[5-fluoro-6-(2-methoxyethoxy)-1H-indazol-3-yl]-1,2-oxazol-3-yl}benzoyl)-7-oxa-2-azaspiro[3.5]nonane]: 0.53 nM and 27 nM.
Consider `COCCOc1cc2[nH]nc(-c3cc(-c4ccc(C(=O)N5CC(c6nc(C)no6)C5)cc4)no3)c2cc1F` [A166, 5-fluoro-6-(2-methoxyethoxy)-3-(3-{4-[3-(3-methyl-1,2,4-oxadiazol-5-yl)azetidine-1-carbonyl]phenyl}-1,2-oxazol-5-yl)-1H-indazole], for which the IC50 against c-Kit(V654A) stood at 0.96 nM; in assay [1], 87 nM.
The matching figures for `COCCOc1cc2[nH]nc(-c3cc(-c4ccc(C(=O)N5CCN(C)CC5)cc4)no3)c2cc1Cl` [A167, (4-{5-[5-chloro-6-(2-methoxy-ethoxy)-1H-indazol-3-yl]-isoxazol-3-yl}-phenyl)-(4-methyl-piperazin-1-yl)-methanone]: 0.4 nM and 74 nM.
For `COCCOc1cc2[nH]nc(-c3cc(-c4ccc(C(=O)N5CC(N6CCOCC6)C5)c(F)c4)no3)c2cc1F` [A168, (2-fluoro-4-{5-[5-fluoro-6-(2-methoxy-ethoxy)-1H-indazol-3-yl]-isoxazol-3-yl}-phenyl)-(3-morpholin-4-yl-azetidin-1-yl)-methanone], the IC50 on c-Kit(V654A) came to 3.3 nM; in assay [1], 49 nM.
The matching figures for `COCCOc1cc2[nH]nc(-c3cc(-c4ccc(C(=O)N5CCC56COC6)c(C)c4)no3)c2cc1F` [A169, (4-{5-[5-fluoro-6-(2-methoxy-ethoxy)-1H-indazol-3-yl]-isoxazol-3-yl}-2-methyl-phenyl)-(6-oxa-1-aza-spiro[3.3]hept-1-yl)-methanone]: 1.2 nM and 44 nM.
